Assay results reported in US20240391887A1, “New VASHs inhibitors, conjugates thereof and their uses as drugs or as research tools” (Centre National de Recherche Scientifique (CNRS), priority 2021, published 2024).
“Also recorded” adds a separate entry of the source. Where two headings read alike, the source gives them in different places. One block for each compound: values may come before it.

How the values were obtained:
VASH1 [1] = molecular target: T1, VASH1 (Homo sapiens, UniProt Q7L8A9); experiment: In vitro detyrosination assay using recombinant VASH1 (immunoblot); details: concentration not given
carboxypeptidase A (CPA) = molecular target: T2, carboxypeptidase A (CPA) (Bos taurus, UniProt P00730); experiment: Carboxypeptidase A-dependent tubulin detyrosination in vitro; format: biochemical; details: concentration not given
T2 sequence (P00730 111-419): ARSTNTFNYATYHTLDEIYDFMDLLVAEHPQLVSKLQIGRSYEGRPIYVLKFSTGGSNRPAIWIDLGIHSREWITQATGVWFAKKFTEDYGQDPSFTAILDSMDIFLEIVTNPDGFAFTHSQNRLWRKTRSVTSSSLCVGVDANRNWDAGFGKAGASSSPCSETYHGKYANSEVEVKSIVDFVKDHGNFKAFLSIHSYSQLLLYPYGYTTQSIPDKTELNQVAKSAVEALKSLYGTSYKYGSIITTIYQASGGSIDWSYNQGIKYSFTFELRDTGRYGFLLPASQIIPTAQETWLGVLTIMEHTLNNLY

VASH2 = VASH2 (Homo sapiens, UniProt Q86V25); experiment: In vitro detyrosination assay, VASH2-mediated (immunoblot); format: biochemical; details: concentration not given
[2] = test system: VASH-mediated tubulin detyrosination in human CHL-1 cells; experiment: In cellulo taxol-induced tubulin detyrosination assay in CHL-1 cells
VASHs = details: background statement; read-out: IC50 in cellulo; cited from earlier work
VASH1 [3] = molecular target: T1, VASH1; experiment: Standardized in vitro detyrosination ELISA based assay; format: biochemical; set-up: poly-histidine tag; made in house; host or cells: bacteria (IPTG induction); details: for in vitro VASH inhibition activity / in vitro activity compared with reference compounds: in vitro detyrosination assay; for Fold change/ LV-80: ratio IC50(compound)/IC50(LV80)
Method: Standardized primary ELISA-based in vitro detyrosination assay in a 96-wells format has been developed according to the method disclosed in WO2020/012002. […] Primary (rabbit anti-detyrosinated tubulin) is incubated for 1 hour and after washes, secondary (anti-rabbit) antibody is added to each well. The plate is incubated 1 h at room temperature. Development consists of addition of TMB (3,3′,5,5′-Tetramethylbenzidine) to each well, incubation 30 minute at room temperature. The colour development is stopped by addition of 0.5 M sulfuric acid. OD is measured at 450 nm.
The in vitro inhibition activity of IBMT11 is tested by adding the compound to the reaction medium as described above (see part 2.2) and then detyrosination was analysed by immunoblotting with the indicated antibodies.

[4] = Solubility in water or PBS solution; format: physicochemical; details: compared with the corresponding base LV-80
CHL-1 cells [5] = experiment: LC/MS bioanalysis of penetration and conversion in human cells; format: in vitro ADME; details: 25 uM, 1 hour
Method: CHL-1 cells have been treated with 25 uM of LV-104 for 1 hour. Culture supernatant have been collected immediately (initial) and 1 hour (supernatant) after compound addition. Cells have been washed, lysed and processed for LC/MS reading (Cells) to detect LV-104 and its bio converted form IBMT11.
Peptide stability in serum Human serum reaction sample contained 250 μl of heat inactivated Human Serum (Sigma Aldrich) and 750 μL of RPMI Medium 1640 (Sigma Aldrich). The reactions were initiated by addition of 50 μl compound (in mM stock solution in DMSO). Assays were performed in a shaking water bath at 37° C. 100 μl samples were collected at known time intervals and added to 200 μl of acetonitrile 1% % TFA to precipitate serum proteins. Cloudy sample was cooled to 4° C. for 15 min and then submitted to centrifugation for 10 min at 12,000 rpm to pellet the precipitated serum proteins. 150 μl of the clear supernatants were collected and peptides were finally analyzed by RPHPLC and LC-MS.
The bioanalysis of the penetration and the conversion of the compound LV-104 has been achieved using the above described protocol on human cells (see part 2.2). The results are illustrated on FIG. 14.

CHL-1 cells [6] = experiment: MTT-based colorimetric cell viability assay; set-up: species or system human; details: 0.1 μM, 24 hours
Source text: We next choose a widely used MTT-based colorimetric assay to assess the potential metabolic toxicity and cell viability alterations in the presence of LV-80. […]

[7] = calculated in vitro IC50, read-out: IC50
[8] = read-out: IC50 on cells, compounds added prior Taxol-treatment, FIG. 12

T1 sequence (Q7L8A9 whole entry): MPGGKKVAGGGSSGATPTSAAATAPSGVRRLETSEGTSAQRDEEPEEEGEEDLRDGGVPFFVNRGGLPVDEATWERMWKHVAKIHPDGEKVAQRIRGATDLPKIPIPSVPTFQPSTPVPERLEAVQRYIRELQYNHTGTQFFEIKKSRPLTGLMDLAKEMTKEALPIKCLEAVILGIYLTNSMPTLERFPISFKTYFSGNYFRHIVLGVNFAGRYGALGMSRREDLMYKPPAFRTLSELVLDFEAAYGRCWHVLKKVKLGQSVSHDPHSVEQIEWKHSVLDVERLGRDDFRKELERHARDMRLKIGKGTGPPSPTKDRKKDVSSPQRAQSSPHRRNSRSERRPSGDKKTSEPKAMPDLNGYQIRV
T1 sequence (Q8N300 whole entry partner): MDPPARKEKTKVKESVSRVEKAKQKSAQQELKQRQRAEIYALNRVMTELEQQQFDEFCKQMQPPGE
VASH2, sequence (Q86V25 whole entry, species assumed): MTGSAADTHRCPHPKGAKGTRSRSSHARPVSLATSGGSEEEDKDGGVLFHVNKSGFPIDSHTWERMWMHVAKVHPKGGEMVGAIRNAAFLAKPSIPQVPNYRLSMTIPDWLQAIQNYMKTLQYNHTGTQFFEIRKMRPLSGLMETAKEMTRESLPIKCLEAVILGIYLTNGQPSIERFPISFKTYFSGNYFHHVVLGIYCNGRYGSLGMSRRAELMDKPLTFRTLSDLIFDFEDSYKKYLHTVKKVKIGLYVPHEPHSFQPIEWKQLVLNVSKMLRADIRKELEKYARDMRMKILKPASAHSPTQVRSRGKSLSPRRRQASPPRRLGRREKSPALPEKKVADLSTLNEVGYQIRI

Compound: O=C(O)CC(Cc1ccccc1)C(=O)O (stereo not drawn) [BzISA, benzylsuccinic acid, reference compound]
effect on VASH1-mediated detyrosination in vitro (VASH1 [1]): did not affect
effect on CPA-dependent detyrosination (carboxypeptidase A (CPA)): completely abolished
effect on VASH2-mediated detyrosination in vitro (VASH2): did not affect

Compound: CCOC(=O)[C@H]1O[C@@H]1C(=O)N[C@@H](Cc1ccc(O)cc1)C(=O)O [Epo-Y, reference compound]
IC50 ([2]; read-out: IC50 in cellulo, taxol-induced detyrosination assay, FIG. 4F): 3 µM
effect on tubulin acetylation ([2]; taxol treated CHL-1 cells): without affecting
inhibition of tubulin detyrosination in cellulo ([2]; taxol treated CHL-1 cells): dose-dependently inhibited; also recorded: reduced tubulin detyrosination in a dose-dependent manner
IC50 (VASHs): ~15 µM

Compound: O=C(O)CCC[C@@H](NC(=O)[C@H]1O[C@@H]1C(=O)N[C@@H](Cc1ccc(OCc2ccccc2)cc1)C(=O)O)C(=O)NCCc1ccccc1 [IBMT-29 hydro]
IC50 (VASH1 [3]; [7]): 0.3 µM
Fold change/ LV-80 (VASH1 [3]): 1

Compound: CC(C)(C)ONC(=O)CCC[C@@H](NC(=O)[C@H]1O[C@@H]1C(=O)N[C@@H](Cc1ccc(OCc2ccccc2)cc1)C(=O)O)C(=O)NCCc1ccccc1 [IBMT-31 hydro]
IC50 (VASH1 [3]; [7]): 3.9 µM
Fold change/ LV-80 (VASH1 [3]): 13

Compound: NC(=O)C(CCCC(=O)O)NC(=O)C1OC1C(=O)NC(Cc1ccc(O)cc1)C(=O)O (stereo not drawn) [LV-43]
in cellulo activity compared with reference compounds ([2]; taxol treated CHL-1 cells): much less efficient than Epo-Y

Compound: O=C(O)[C@H](Cc1ccc(O)cc1)NC(=O)[C@H]1O[C@@H]1C(=O)N[C@@H](Cc1ccc(O)cc1)C(=O)O [LV-59]
IC50 (VASH1 [3]; [7]): 1.2 µM
Fold change/ LV-80 (VASH1 [3]): 4

Compound: CCOC(=O)[C@H](Cc1ccc(OCC)cc1)NC(=O)[C@H]1O[C@@H]1C(=O)N[C@@H](Cc1ccc(OCC)cc1)C(=O)OCC [LV-104]
effect on VASH1-mediated detyrosination in vitro (VASH1 [1]): did not have any effect
IC50 [2, 8]: 0.008 µM
inhibition of tubulin detyrosination in cellulo ([2]; taxol treated CHL-1 cells): very efficient inhibition
effect on VASH2-mediated detyrosination in vitro (VASH2): did not have any effect
conversion of prodrug into IBMT11 inside human cells (CHL-1 cells [5]): total conversion
detection of parent compound inside cells (CHL-1 cells [5]): undetectable
in vitro VASH inhibition activity (VASH1 [3]): did not inhibit

Compound: CCOC(=O)[C@H](Cc1ccc(OCC)cc1)NC(=O)[C@H]1O[C@@H]1C(=O)OCC [LV-111]
effect on VASH1-mediated detyrosination in vitro (VASH1 [1]): did not have any effect
IC50 [2, 8]: 0.02 µM
effect on VASH2-mediated detyrosination in vitro (VASH2): did not have any effect

Compound: O=C(O)C(Cc1ccc(O)cc1)NC(=O)C1OC1C(=O)O (stereo not drawn) [SD-139sapo, reference compound]
in vitro activity compared with reference compounds (VASH1 [3]): very less potent than LV-80

Compound: O=C(O)[C@H](Cc1ccc(OCc2ccccc2)cc1)NC(=O)[C@H]1O[C@@H]1C(=O)N[C@@H](Cc1ccc(OCc2ccccc2)cc1)C(=O)O [Synthé Mix hydro]
IC50 (VASH1 [3]; [7]): 0.6 µM
Fold change/ LV-80 (VASH1 [3]): 2

Compound: CC(=O)O[C@H]1C(=O)[C@@]2(C)[C@H]([C@H](OC(=O)c3ccccc3)[C@]3(O)C[C@H](OC(=O)[C@H](O)[C@@H](NC(=O)c4ccccc4)c4ccccc4)C(C)=C1C3(C)C)[C@]1(OC(C)=O)CO[C@@H]1C[C@@H]2O [taxol, paclitaxel]
cell viability (CHL-1 cells [6]): significant reduction

Continued, in another order:

in vitro VASH inhibition activity (VASH1 [3]): inactive
Compound: CCOC(=O)CCCCNC(=O)[C@H]1O[C@@H]1C(=O)N[C@@H](Cc1ccc(OCC)cc1)C(=O)OCC [IBMT23]
in cellulo activity compared with reference compounds ([2]; taxol treated CHL-1 cells): more potent on cultured cells than LV80; also recorded: as potent in vivo as LV80
inhibition of tubulin detyrosination in cellulo ([2]; taxol treated CHL-1 cells): excellent

IC50 (VASH1 [3]; VASH1-mediated tubulin detyrosination, FIG. 13.A, read-out: in vitro IC50): 0.6 µM
in vitro activity compared with reference compounds (VASH1 [3]): more potently than Epo-Y
Fold change/ LV-80 (VASH1 [3]): 2
Compound: CCOc1ccc(C[C@H](NC(=O)[C@H]2O[C@@H]2C(=O)N[C@H](Cc2ccc(OCC)cc2)C(=O)O)C(=O)O)cc1 [IBMT-11]
inhibition of tubulin detyrosination in cellulo ([2]; taxol treated CHL-1 cells): weak inhibition activity

IC50 (VASH1 [3]; [7]): 3.9 µM
Fold change/ LV-80 (VASH1 [3]): 13
Compound: CCOc1ccc(C[C@H](NC(=O)[C@H]2O[C@@H]2C(=O)NCCCCC(=O)O)C(=O)O)cc1 [IBMT-26]

IC50 (VASH1 [3]; [7]): 4.2 µM
Fold change/ LV-80 (VASH1 [3]): 14
Compound: CCOC(=O)[C@H](Cc1ccc(OCc2ccccc2)cc1)NC(=O)[C@H]1O[C@@H]1C(=O)N[C@H](CCCC(=O)O)C(=O)NCCc1ccccc1 [IBMT-29]

solubility in water or PBS solution [4]: dramatically increased
IC50 (VASH1 [3]; [7]): 0.3 µM
in vitro activity compared with reference compounds (VASH1 [3]): same activity
Fold change/ LV-80 (VASH1 [3]): 1
Compound: O=C([O-])CCC[C@H](NC(=O)[C@H]1O[C@@H]1C(=O)N[C@@H](Cc1ccc(OCc2ccccc2)cc1)C(=O)[O-])C(=O)NCCc1ccccc1.[Na+].[Na+] [IBMT-34]
in cellulo activity compared with reference compounds ([2]; taxol treated CHL-1 cells): same activity

in vitro activity compared with reference compounds (VASH1 [3]): very less potent than LV-80
Compound: CCOC(=O)C1OC1C(=O)NC(Cc1ccc(O)cc1)C(=O)OC(C)(C)C (stereo not drawn) [SD-139, reference compound]
